In paper PMC9356275, “A quantitative high-throughput screen identifies compounds that lower expression of the SCA2-and ALS-associated gene ATXN2” (The Journal of Biological Chemistry, 2022):
Structures can show the parent of a compound that is named as a salt.

Tested on: ATXN2-luc
Experiment: MSSR pilot screen: ATXN2-luc luciferase assay (Bright-Glo) in H2 cells, single 10 μM dose
Format: cell-based, human
Details: H2 cells, single dose (title: 10 μM compound), overnight

Compound | SD from mean (ATXN2-luc, Z-score)
O=C1C=CC(=O)c2ccccc21 [4-NAPHTHOQUINONE] | -3.613 SD
C[n+]1c2cc(N)ccc2cc2ccc(N)cc21.[Cl-] [ACRIFLAVINIUM HYDROCHLORIDE] | -4.148 SD
CCCCCCc1ccc(O)cc1O.Nc1c2ccccc2nc2ccccc12 [ACRISORCIN] | -3.600 SD
CC[C@@]1(O)C[C@H](O[C@H]2C[C@H](N(C)C)[C@H](O)[C@H](C)O2)c2c(cc3c(c2O)C(=O)c2c(O)cccc2C3=O)[C@H]1C(=O)OC [AKLAVINE HYDROCHLORIDE] | -3.741 SD
Nc1c2ccccc2nc2ccccc12 [AMINACRINE] | -4.103 SD
N=c1ccn2c(n1)O[C@H]1[C@H](O)[C@@H](CO)O[C@H]12 [ANCITABINE HYDROCHLORIDE] | -3.031 SD
CC(=O)O[C@@H]1C[C@@]2(C)[C@H](c3ccoc3)C[C@H]3O[C@]32[C@]2(C)C(=O)C(O)=C3C(C)(C)C(=O)C=C[C@]3(C)[C@@H]12 [ANTHOTHECOL] | -3.020 SD
COc1ccc(C[C@H]2NC[C@H](O)[C@H]2OC(C)=O)cc1 [Anisomycin] | -4.015 SD
CC(C)/N=c1\cc2n(-c3ccc(Cl)cc3)c3ccccc3nc-2cc1Nc1ccc(Cl)cc1 [CLOFAZIMINE] | -2.792 SD
CO[C@H]1C=C[C@@]23c4cc5c(cc4CN(C[C@@H]2O)[C@H]3C1)OCO5 [CRINAMINE] | -3.651 SD
Nc1ccn([C@@H]2O[C@H](CO)[C@@H](O)[C@@H]2O)c(=O)n1 [CYTARABINE] | -3.681 SD
COc1cccc2c1C(=O)c1c(O)c3c(c(O)c1C2=O)C[C@@](O)(C(C)=O)C[C@@H]3O[C@H]1C[C@H](N)[C@H](O)[C@H](C)O1 [Daunorubicin hydrochloride] | -4.155 SD
Cc1c2ccncc2c(C)c2c1[nH]c1ccccc12 [Ellipticine] | -3.485 SD
CC(C)=CCC[C@]1(C)C=Cc2c(O)c3c(c(CC=C(C)C)c2O1)O[C@]12C(=C[C@@H]4C[C@H]1C(C)(C)O[C@@]2(C/C=C(/C)C(=O)O)C4=O)C3=O [GAMBOGIC ACID] | -4.841 SD
COC(=O)C[C@](O)(CCCC(C)(C)O)C(=O)O[C@@H]1C(OC)=C[C@]23CCCN2CCc2cc4c(cc2[C@H]13)OCO4 [HOMOHARRINGTONINE] | -3.117 SD
CC(=O)[C@]1(O)Cc2c(O)c3c(c(O)c2[C@@H](O[C@H]2C[C@H](N)[C@H](O)[C@H](C)O2)C1)C(=O)c1ccccc1C3=O [IDARUBICIN HCl] | -2.944 SD
CC(=O)[C@]1(O)Cc2c(O)c3c(c(O)c2[C@@H](O[C@H]2C[C@H](N)[C@H](O)[C@H](C)O2)C1)C(=O)c1ccccc1C3=O [IDARUBICIN] | -2.719 SD

Compound | SD from mean (ATXN2-luc, Z-score)
CC(C)[N+](C)(CCC(C(N)=O)(c1ccccc1)c1ccccc1)C(C)C [ISOPROPAMIDE IODIDE] | -4.073 SD
O[C@H]1[C@H]2c3cc4c(cc3CN3CCC(=C[C@@H]1O)[C@H]23)OCO4 [Lycorine hydrochloride] | -2.968 SD
Cl.Cl.O=C1c2c(O)ccc(O)c2C(=O)c2c(NCCNCCO)ccc(NCCNCCO)c21 [MITOXANTHRONE HYDROCHLORIDE] | -4.333 SD
O=C1c2c(O)ccc(O)c2C(=O)c2c(NCCNCCO)ccc(NCCNCCO)c21 [Mitoxantrone dihydrochloride] | -3.666 SD
O=C(Nc1ccc([N+](=O)[O-])cc1Cl)c1cc(Cl)ccc1O [Niclosamide] | -4.393 SD
N=C1C=CC(=C(c2ccc(N)cc2)c2ccc(N)cc2)C=C1 [PARAROSANILINE PAMOATE] | -2.740 SD
O=C1C=C2C(=CCOC2O)O1 (stereo not drawn) [PATULIN] | -3.651 SD
COC(=O)[C@]1(C)CC[C@]2(C)CC[C@]3(C)C4=CC=C5C(=CC(=O)C(O)=C5C)[C@]4(C)CC[C@@]3(C)[C@@H]2C1 [PRISTIMERIN] | -3.883 SD
COc1ccc(C[C@H](N)C(=O)N[C@H]2[C@@H](O)[C@H](n3cnc4c(N(C)C)ncnc43)O[C@@H]2CO)cc1 [PUROMYCIN HYDROCHLORIDE] | -3.716 SD
COc1cc(/C=C/C(=O)N2CCC=CC2=O)cc(OC)c1OC [Piperlongumine] | -2.973 SD
COc1ccc(C[C@H](N)C(=O)N[C@H]2[C@@H](O)[C@H](n3cnc4c(N(C)C)ncnc43)O[C@@H]2CO)cc1 [Puromycin dihydrochloride] | -4.723 SD
CCN(CC)CCCC(C)Nc1c2ccc(Cl)cc2nc2ccc(OC)cc12 (stereo not drawn) [Quinacrine dihydrochloride dihydrate] | -3.270 SD
CC[C@@]1(O)C[C@H](O)c2c(cc3c(c2O)C(=O)c2c(O)ccc(O)c2C3=O)[C@H]1C(=O)OC [RUTILANTINONE] | -2.722 SD
COc1cc([C@@H]2c3cc4c(cc3[C@@H](O[C@@H]3O[C@@H]5CO[C@@H](c6cccs6)O[C@H]5[C@H](O)[C@H]3O)[C@H]3COC(=O)[C@H]23)OCO4)cc(OC)c1O [TENIPOSIDE] | -2.832 SD
C[CH2][Hg][S]c1ccccc1C(=O)[O-].[Na+] [THIMEROSAL] | -5.645 SD
C[C@H]1CC[C@]2(NC1)O[C@H]1C[C@H]3[C@@H]4CC[C@H]5C[C@@H](O[C@@H]6O[C@H](CO)[C@H](O[C@@H]7O[C@H](CO)[C@@H](O)[C@H](O[C@@H]8OC[C@@H](O)[C@H](O)[C@H]8O)[C@H]7O[C@@H]7O[C@H](CO)[C@@H](O)[C@H](O)[C@H]7O)[C@H](O)[C@H]6O)CC[C@]5(C)[C@H]4CC[C@]3(C)[C@H]1[C@@H]2C [TOMATINE] | -4.999 SD
